Reference: patent publication US20260248131A1, “AGROCHEMICAL FORMULATIONS COMPRISING CRYSTALLINE FORM A OF 4-[(6-CHLORO-3-PYRIDYL-METHYL )(2,2-DIFL UOROETHYL )AMINO]FURAN-2(5H)-ONE” (BAYER AKTIENGESELLSCHAFT, priority 2022, published 2026)
Values after ≈ are worked out from the molar mass of the structure shown.

Experiments:
physchem = type: physicochemical
Experimental: The water solubility of FPF polymorph A and B was determined by saturating a certain amount of demineralized water with the respective polymorph, stirring the resulting saturated suspension overnight, filtering the undissolved solid residue, and measuring the dissolved concentration of FPF in the filtrate.

[1] = test system: bird cherry-oat aphid Rhopalosiphum padi; experiment: Systemic efficacy of FPF FS 480 as barley seed treatment against aphids; type: in vivo; settings: seed treatment with FS 480
Source text: Physico-chemical properties are key drivers for systemic plant uptake and biological activity. To test the efficacy of different FPF modifications against the bird cherry-oat aphid Rhopalosiphum padi a sufficient number of barley seeds (variety “Scarlett”, thousand kernel weight: 43.6 g) were manually dressed with a defined amount of the Flupyradifurone FS480 formulated with 100% Form A, 100% Form B and a combination of 99% Form A and 1% Form B, respectively. Test concentrations were 0.15 g active ingredient per kg of seed (commercial dose rate in cereals) and 0.075 g active ingredient per kg of seed. Longitudinal boxes were filled with 5,900 g of a sandy loam soil (75.1% sand, 10.3% clay, 14.8% silt, 1.75% humus, pH 6.9) and 15 seeds per box were sown at spacing of approx. 2.5 cm and at depth of 3 cm. After sowing, boxes were watered to reach 50-70% of field capacity and covered with plastic foil until first plants were emerging. Aphid infestation was conducted at the second leaf stage by adding multiple pieces of infested leaf material to each test box. A second re-infestation was carried out at 3 days after the first infestation using methods described previously. The biological activity of tested FPF modifications was evaluated at 3 and 7 days after the initial infestation by a visual assessment of the colonized leaf area in comparison to the untreated and infested control. Results were expressed in percent efficacy. […] Growing conditions were at a constant temperature of 20° C., 50% relative humidity and 14 hours of illumination using sodium pressure lamps. The experiment comprised 3 replicates per treatment.

Compound: O=C1C=C(N(Cc2ccc(Cl)nc2)CC(F)F)CO1 [Polymorph A, 4-[(6-chloro-3-pyridylmethyl)(2,2-difluoroethyl)amino]furan-2(5H)-one]
- reduced water solubility of FPF form A (physchem): 60%
- water solubility compared with form B (physchem): significantly lower than that of form B
- water solubility of polymorphic form A as share of that of polymorphic form B (physchem): 60%
- solubility (physchem; water, thermodynamic from solid, Water Solubility): 2000 µg/mL (≈ 6.93 mM)
- systemic biological efficacy compared with form B ([1]; listed as FPF form A): does not lead to a reduced biological efficacy in comparison to FPF form B
- systemic biological efficacy compared with form B ([1]; listed as form A): not reduced
- systemic biological efficacy compared with form B ([1]; listed as polymorphic form A): at the same level as that of polymorphic form B

Compound: O=C1C=C(N(Cc2ccc(Cl)nc2)CC(F)F)CO1 [Polymorph B, 4-[(6-chloro-3-pyridylmethyl)(2,2-difluoroethyl)amino]furan-2(5H)-one, reference compound]
- Water Solubility (physchem): 3200 µg/mL
